{"source": "patent US20230180804A1", "about": "“FLAVOR COMPOSITION, AND FOOD AND BEVERAGE” (TAKASAGO INTERNATIONAL CORPORATION, priority 2020, published 2023)", "key": {"[1]": {"assay": "Sensory evaluation of p-cresol odor masking in p-cresol-containing citrus-flavored beverage", "settings": "for p-Cresol Odor Intensity: beverage with 50 ppb p-cresol, average score of 7 panelists, scale 0-4"}, "[2]": {"assay": "Sensory evaluation of p-cresol odor masking in p-cresol-containing citrus-flavored confectionery (tablet)", "settings": "for p-Cresol Odor Intensity: tablet with 200 ppb p-cresol, average score of 6 panelists, scale 0-4", "method": "Lemon cold-pressed oil was added to the tablet having the composition presented in Table A at a concentration of 1 % by mass, and medium chain fatty acid triglycerides (MCT) was used to adjust p-cresol to a concentration of 0.1%, which was further added so as to reach 200 ppb in the citrus flavored confectionery. To this p-cresol-containing citrus-flavored confectionery, 1-oxacycloheptadecan-7-en-2-one was added at the concentrations presented in Table 12, and then tableting was performed to confirm the p-cresol odor intensity (masking effect) and the influence on the citrus flavor of each sample.\nSix skilled panelists were selected to perform the same sensory evaluation as in Example 1. The results are as in Table 12, presenting the average score of the evaluation results for each panelist."}, "[3]": {"assay": "Sensory evaluation of p-cresol odor masking in p-cresol-containing grated raw ginger", "settings": "for p-Cresol Odor Intensity: grated ginger with 600 ppb p-cresol, average score of 9 panelists, scale 0-4", "method": "To commercially available grated raw ginger, p-cresol adjusted to a concentration of 0.1% with 95% ethanol was added to a concentration of 600 ppb in the ginger. To this p-cresol-containing ginger, 1-oxacycloheptadecan-8-en-2-one was added at the concentrations presented in Table 16 to confirm the p-cresol odor intensity (masking effect) and the influence on the ginger flavor of each sample.\nNine skilled panelists were selected to perform the same sensory evaluation as in Example 1. The results are as in Table 16, presenting the average score of the evaluation results for each panelist."}, "[4]": {"assay": "Sensory evaluation of p-cresol odor masking in p-cresol-containing lemon dressing", "settings": "lemon dressing with 500 ppb p-cresol; for p-Cresol Odor Intensity: average score of 9 panelists, scale 0-4", "method": "To a commercially available lemon dressing, p-cresol adjusted to a concentration of 0.1% with 95% ethanol was added to 500 ppb in the lemon dressing. To this p-cresol-containing lemon dressing, l-oxacycloheptadecan-8-en-2-one was added at the concentrations presented in Table 18 to confirm the p-cresol odor intensity (masking effect) and the influence on the citrus flavor of each sample.\nNine skilled panelists were selected to perform the same sensory evaluation as in Example 1. The results are as in Table 18, presenting the average score of the evaluation results for each panelist."}, "[5]": {"settings": "citrus-flavored beverage with 50 ppb p-cresol"}, "[6]": {"settings": "citrus-flavored confectionery (tablet) with 200 ppb p-cresol"}, "[7]": {"settings": "grated raw ginger with 600 ppb p-cresol"}}, "data": [{"smiles": "O=C1CCCCCCCCCCCCCCO1", "note": "[Pentalide, pentalide]", "values": [{"measurement": "p-Cresol Odor Intensity", "setting": "[1]; 0.01 ppt added", "result": 3.6, "unit": "points"}, {"measurement": "p-Cresol Odor Intensity", "setting": "[1]; 0.1 ppt added", "result": 2.9, "unit": "points"}, {"measurement": "p-Cresol Odor Intensity", "setting": "[1]; 1 ppb added", "result": 1.4, "unit": "points"}, {"measurement": "p-Cresol Odor Intensity", "setting": "[1]; 1 ppt added", "result": 2.6, "unit": "points"}, {"measurement": "p-Cresol Odor Intensity", "setting": "[1]; 10 ppb added", "result": 1.0, "unit": "points"}, {"measurement": "p-Cresol Odor Intensity", "setting": "[1]; 10 ppt added", "result": 2.0, "unit": "points"}, {"measurement": "p-Cresol Odor Intensity", "setting": "[1]; 100 ppb added", "result": 0.6, "unit": "points"}, {"measurement": "p-Cresol Odor Intensity", "setting": "[1]; 100 ppt added", "result": 1.9, "unit": "points"}, {"measurement": "concentration at which the compound masks the p-cresol odor and does not affect the citrus flavor, lower limit", "setting": "[1]; [5]", "result": "≥ 0.1", "unit": "ppt"}, {"measurement": "concentration at which the compound masks the p-cresol odor and does not affect the citrus flavor, upper limit", "setting": "[1]; [5]", "result": "≤ 1", "unit": "ppb"}, {"measurement": "p-Cresol Odor Intensity", "setting": "[2]; 4 ppb added", "result": 2.3, "unit": "points"}, {"measurement": "p-Cresol Odor Intensity", "setting": "[2]; 40 ppb added", "result": 1.7, "unit": "points"}, {"measurement": "p-Cresol Odor Intensity", "setting": "[2]; 40 ppt added", "result": 2.8, "unit": "points"}, {"measurement": "p-Cresol Odor Intensity", "setting": "[2]; 400 ppb added", "result": 1.5, "unit": "points"}, {"measurement": "p-Cresol Odor Intensity", "setting": "[2]; 400 ppt added", "result": 2.7, "unit": "points"}, {"measurement": "concentration at which the compound masks the p-cresol odor and does not affect the citrus flavor, lower limit", "setting": "[2]; [6]", "result": "≥ 400", "unit": "ppt"}, {"measurement": "concentration at which the compound masks the p-cresol odor and does not affect the citrus flavor, upper limit", "setting": "[2]; [6]", "result": "≤ 400", "unit": "ppb"}, {"measurement": "p-Cresol Odor Intensity", "setting": "[3]; 1 ppb added", "result": 1.3, "unit": "points"}, {"measurement": "p-Cresol Odor Intensity", "setting": "[3]; 1 ppt added", "result": 3.3, "unit": "points"}, {"measurement": "p-Cresol Odor Intensity", "setting": "[3]; 10 ppb added", "result": 1.1, "unit": "points"}, {"measurement": "p-Cresol Odor Intensity", "setting": "[3]; 10 ppt added", "result": 2.7, "unit": "points"}, {"measurement": "p-Cresol Odor Intensity", "setting": "[3]; 100 ppt added", "result": 1.6, "unit": "points"}, {"measurement": "concentration at which the compound masks the p-cresol odor and does not affect the ginger flavor, lower limit", "setting": "[3]; [7]", "result": "≥ 10", "unit": "ppt"}, {"measurement": "concentration at which the compound masks the p-cresol odor and does not affect the ginger flavor, upper limit", "setting": "[3]; [7]", "result": "≤ 1", "unit": "ppb"}, {"measurement": "p-Cresol Odor Intensity", "setting": "[4]; 1 ppb added", "result": 1.1, "unit": "points"}, {"measurement": "p-Cresol Odor Intensity", "setting": "[4]; 1 ppt added", "result": 3.6, "unit": "points"}, {"measurement": "p-Cresol Odor Intensity", "setting": "[4]; 10 ppb added", "result": 0.9, "unit": "points"}, {"measurement": "p-Cresol Odor Intensity", "setting": "[4]; 10 ppt added", "result": 2.8, "unit": "points"}, {"measurement": "p-Cresol Odor Intensity", "setting": "[4]; 100 ppt added", "result": 1.9, "unit": "points"}, {"measurement": "concentration at which the compound masks the p-cresol odor and does not affect the citrus flavor, lower limit", "setting": "[4]", "result": "≥ 10", "unit": "ppt"}, {"measurement": "concentration at which the compound masks the p-cresol odor and does not affect the citrus flavor, upper limit", "setting": "[4]", "result": "≤ 10", "unit": "ppb"}]}]}
